Assay results reported in BindingDB's records for doi:10.1021/jm00006a013 (Universit&#224, 1995).
pIC50: −log10 of the molar value.

Each compound was assayed against sigma receptor (Cavia porcellus) (assay: In vitro binding affinity measured on sigma opioid receptor using [3H]DTG as radioligand).

| Structure (SMILES) | pIC50 |
| --- | --- |
| COc1ccc2c(c1)C(CCCN1CCN(c3ccccn3)CC1)CCC2 (stereo unspecified) [1-[3-(7-Methoxy-1,2,3,4-tetrahydro-naphthalen-1-yl)-propyl]-4-pyridin-2-yl-piperazine] | 6.90 |
| COc1ccc2c(c1)C(SCCN1CCN(c3ccccc3OC)CC1)CCC2 (stereo unspecified) [1-(2-Methoxy-phenyl)-4-[2-(7-methoxy-1,2,3,4-tetrahydro-naphthalen-1-ylsulfanyl)-ethyl]-piperazine] | 6.86 |
| COc1ccc2c(c1)C(CCCN1CCN(c3ccccn3)CC1)=CCC2 [1-[3-(7-Methoxy-3,4-dihydro-naphthalen-1-yl)-propyl]-4-pyridin-2-yl-piperazine] | 6.61 |
| COc1ccccc1N1CCN(CC/C=C2\CCCc3ccccc32)CC1 [1-{3-[3,4-Dihydro-2H-naphthalen-(1E)-ylidene]-propyl}-4-(2-methoxy-phenyl)-piperazine] | 7.26 |
| COc1ccccc1N1CCN(CC/C=C2\CCCc3c(OC)cccc32)CC1 [1-{3-[5-Methoxy-3,4-dihydro-2H-naphthalen-(1E)-ylidene]-propyl}-4-(2-methoxy-phenyl)-piperazine] | 7.28 |
| COc1ccc2c(c1)C(CCCN1CCN(c3ccccc3OC)CC1)=CCC2 [1-[3-(7-Methoxy-3,4-dihydro-naphthalen-1-yl)-propyl]-4-(2-methoxy-phenyl)-piperazine] | 6.64 |
